Assay results reported in publication PMC5390315 (Scientific Reports, 2017).
“And” between values parts separate entries of the source, which are not always exact repeats. Identical values can stand only once.

What was measured:
[1] = tested on: HeLa cells; experiment: Mitotic cells by p-histone H3/PI flow cytometry; type: cell-based, human; conditions: 100 nM, 24 h, untreated 1.3%
[2] = tested on: BL6-B16 murine melanoma cells; experiment: Mouse allograft tumor model (BL6-B16 melanoma); type: in vivo
Source text: Animal experiments were approved by our local animal ethics committee (OPBA, Organismo Preposto al Benessere degli Animali, Università degli Studi di Brescia, Italy) and were executed in accordance with national guidelines and regulations. Procedures involving animals and their care conformed with institutional guidelines that comply with national and international laws and policies (EEC Council Directive 86/609, OJ L 358, 12 December 1987) and with “ARRIVE” guidelines (Animals in Research Reporting In Vivo Experiments). Six week old C57BL/6 mice (Charles River, Calco) were injected subcutaneously into the dorsolateral flank with 2.5x10^5 BL6-B16 murine melanoma cells in 200 μL of PBS. When tumors were palpable, animals were treated intraperitoneally every other day with different doses of test compounds dissolved in 50 μL of DMSO. Tumors were measured in two dimensions, and tumor volume was calculated according to the formula V = (D × d^2)/2, where D and d are the major and minor perpendicular tumor diameters, respectively.

[3] = tested on: HeLa cells; experiment: Western blot analysis of cell cycle and apoptosis proteins; type: cell-based, human
Method: HeLa cells were incubated in the presence of 4i and, after different times, were collected, centrifuged, and washed two times with ice cold phosphate buffered saline (PBS). The pellet was then resuspended in lysis buffer. After the cells were lysed on ice for 30 min, lysates were centrifuged at 15000× g at 4 °C for 10 min. The protein concentration in the supernatant was determined using the BCA Protein Assay (Pierce, Italy). Equal amounts of protein (10 μg) were resolved using sodium dodecyl sulfate-polyacrylamide gel electrophoresis (SDS-PAGE) (Criterion Precast, BioRad, Italy) and transferred to a PVDF Hybond-P membrane (GE Healthcare). Membranes were blocked with a bovine serum albumin solution (5% in Tween PBS 1X), the membranes being gently rotated overnight at 4 °C. Membranes were then incubated with primary antibodies against caspase-9, PARP, cdc25c, p-H2AX^Ser139, cyclin B, p-cdc2^Tyr15 (all from Cell Signaling) or β-actin (Sigma-Aldrich) for 2 h at room temperature. Membranes were next incubated with peroxidase labeled secondary antibodies for 60 min. All membranes were visualized using ECL Select (GE Healthcare), and images were acquired using an Uvitec-Alliance imaging system (Uvitec, Cambridge, UK). To ensure equal protein loading, each membrane was stripped and reprobed with anti-β-actin antibody.

[4] = tested on: HT-29; experiment: Antiproliferative MTT assay, HT-29; type: cell-based, human; conditions: Homo sapiens, HT-29, 72 h, mean ± SE
Method: (§1) Human T-cell leukemia (Jurkat) and human B-cell leukemia (SEM and RS4;11) cells were grown in RPMI-1640 medium (Gibco, Milano, Italy). Breast adenocarcinoma (MCF-7), human cervix carcinoma (HeLa), human lung adenocarcinoma (A549) and human colon adenocarcinoma (HT-29) cells were grown in DMEM medium (Gibco, Milano, Italy), all supplemented with 115 units/mL penicillin G (Gibco, Milano, Italy), 115 μg/mL streptomycin (Invitrogen, Milano, Italy), and 10% fetal bovine serum (FBS; Invitrogen, Milano, Italy). Stock solutions (10 mM) of the different compounds were obtained by dissolving them in DMSO. Individual wells of a 96-well tissue culture microtiter plate were inoculated with 100 μL of complete medium containing 8 × 10^3 cells. The plates were incubated at 37 °C in a humidified 5% CO2 incubator for 18 h prior to the experiments. After medium removal, 100 μL of fresh medium containing the test compound at different concentrations was added to each well in triplicate and incubated at 37 °C for 72 h. The percentage of DMSO in the medium never exceeded 0.25%. This was also the maximum DMSO concentration in all cell-based assays described below.

[5] = tested on: HUVECs; experiment: HUVEC scratch wound motility assay; type: cell-based, human; conditions: 100 nM, 6 h and 24 h
Method: HUVECs were prepared from human umbilical cord veins, as previously described. The adherent cells were maintained in M200 medium supplemented with LSGS (Low Serum Growth Supplement), containing FBS, hydrocortisone, hEGF, bFGF, heparin, gentamycin/amphotericin (Life Technologies, Monza, Italy). Once confluent, the cells were detached by a trypsin–EDTA solution and used in experiments from the first to sixth passages.
The motility assay for HUVECs was based on “scratch” wounding of a confluent monolayer. Briefly, HUVECs (1x10^5) were seeded onto 6-well plates coated with 0.1% collagen type I (BD Biosciences, Italy) in complete medium until a confluent monolayer was formed. The cells were wounded using a pipette tip, and wells were washed with PBS to remove undetached cells. Then, the cells were treated with the test compounds, and, at different times from the scratch, the cells were photographed under a light microscope. At all indicated time points, the wound width was measured in four areas and compared with the initial width.

[6] = tested on: tubulin; experiment: Inhibition of [3H]colchicine binding to tubulin; conditions: tubulin 1 μM, [3H]colchicine 5 μM
Method: To evaluate the effect of the compounds on tubulin assembly in vitro[41], varying concentrations of compounds were preincubated with 10 μM bovine brain tubulin in 0.8 M monosodium glutamate (pH adjusted to 6.6 with HCl in a 2.0 M stock solution) at 30 °C and then cooled to 0 °C. After addition of 0.4 mM GTP, the mixtures were transferred to 0 °C cuvettes in a recording spectrophotometer and warmed to 30 °C. Tubulin assembly was followed turbidimetrically at 350 nm. […] The capacity of the test compounds to inhibit colchicine binding to tubulin was measured as described, except that the reaction mixtures contained 1 μM tubulin, 5 μM [^3H]colchicine and 1 or 5 μM test compound.

[7] = tested on: A549; experiment: Antiproliferative MTT assay, A549; type: cell-based, human; conditions: Homo sapiens, A549, 72 h, mean ± SE
Method: as §1

## CCOc1ccc(-c2oc(C)nc2-c2cc(OC)c(OC)c(OC)c2)cc1 [Compound 4i, 4-(3,4,5-Trimethoxyphenyl)-5-(4-ethoxyphenyl)-2-methyloxazole]
[1]
  percentage of mitotic cells (p-histone H3): ~46%
[2]; 3.0 mg/kg i.p. on days 9, 11 and 14
  reduction in tumor mass: 34.9%
[2]; 7.5 mg/kg i.p. on days 9, 11 and 14
  reduction in tumor mass: 52.5%
[2]; highest dose (7.5 mg/kg i.p.)
  signs of toxicity in mice: did not show any sign of toxicity
[2]; highest dose (7.5 mg/kg i.p.), data not shown
  animal body weight: did not cause a decrease in animal body weight
[3]; 100 nM
  expression of Mcl-1: only slightly decreased
[3]; 100 nM, 24 and 48 h
  total cdc25c expression: reduced
[3]; 24 and 48 h
  XIAP expression: significantly reduced
[3]; 24 and 48 h, concentration dependent
  cyclin B1 expression: marked increase
[3]; 50 or 100 nM, 24 and 48 h
  PARP cleavage: appearance of its cleavage fragments
[3]; 48 h
  phosphorylation of γH2A.X (Ser139): great increase
[3]; most noticeable at 24 h, 100 nM
  expression of phosphorylated cdc2: decreased
[4]
  IC50: 0.0202 ± 0.0088 µM
[5]
  HUVEC cell migration (wound healing): significantly reduced
[6]; 1 μM drug
  Colchicine binding % inhibition ± S.D, 1 μM drug: 62 ± 0.4%
[6]; 5 μM drug
  Colchicine binding % inhibition ± S.D, 5 μM drug: 82% and 86 ± 1%
[7]
  IC50: 0.0005 ± 0.0001 µM
